Values after ≈ are worked out from the molar mass of the structure shown.
Tests used:
[1] = assay type: physicochemical
Text: Although some borinic esters are effective as antibacterial agents, incorporating borinic esters into oral care compositions presents difficulties, as borinic esters have proven to be unstable when added to aqueous compositions. For example, borinic esters may hydrolyze and decompose, e.g., in oral care compositions. Additionally, borinic esters may be insoluble in aqueous compositions. […] There remains a need to develop compositions and methods to incorporate borinic acid derivatives stably in oral care compositions.
The poor solubility of Compound A presents some formulation challenges. Its solubility in water is less than 100 ppm, and its solubility in flavor oils (often used to solubilize actives) is less than 0.5%. We have discovered that co-polymers of polyethylene glycol and polypropylene glycol are able to solubilize Compound 1. Fluraflo L4370 (BASF) is able to solubilize 1% Compound 1 (% w/w). It is necessary to stir the solution over low heat to fully solubilize the active. The resulting solution is cloudy, reflecting the nature of the Fluraflo L4370 itself. The solution of 1% Compound 1 in Fluraflo L4370 is diluted 1:1 with 1.5% SLS in water to produce a clear solution, composed of 0.5% AN0128, 0.75% SLS, 50% Fluraflo L4370 in water Similar results are achieved using Fluracare L1220.
We further discovered that low molecular weight polyethylene glycol 300 (PEG 300) (Dow Chemical Company) solubilizes 10% Compound 1 (% w/w). It is necessary to stir the solution over low heat to fully solubilize the active. The resulting solution is clear with a slight yellow tint due to the color of Compound 1. […] Therefore, we conclude that solvents containing oligomers and/or polymers of ethylene glycol are capable of solubilizing Compound 1 and are suitable for formulation.
(§1) The properties of Compound 1 in conjunction with other excipients are further evaluated by diluting a solution of Compound 1 in PEG 300 into other solvents such as propylene glycol and glycerin at varying ratios. A solution containing 1% Compound 1 in 19% PEG 300 and 80% propylene glycol is clear. This solution is then diluted 1:1 with 1% SLS in water to produce a solution composed of 0.5% Compound 1, 0.5% SLS, 9.5% PEG 300 and 40% propylene glycol in water which is then tested in the biofilm disruption assay. The percent reduction achieved versus the negative control is 80%. […] Similar results are achieved with PEG and glycerin.

A. actinomycetemcomitans = assay: Minimum inhibitory concentration; assay type: cell-based; settings: Aggregatibacter actinomycetemcomitans, Gram Negative, ethanol vehicle
Text: (§2) The minimum inhibitory concentration for COMPOUND 1 against common oral bacteria is found to be as follows. Ethanol is used as vehicle.

A. naeslundii = assay: Minimum inhibitory concentration; assay type: cell-based; settings: Actinomyces naeslundii, Gram Positive, ethanol vehicle
Text: as §2

A. viscosus = assay: Minimum inhibitory concentration; assay type: cell-based; settings: Actinomyces viscosus, Gram Positive, ethanol vehicle
Text: as §2

F. nucleatum = assay: Minimum inhibitory concentration; assay type: cell-based; settings: Fusobacterium nucleatum, Gram Negative, ethanol vehicle
Text: as §2

L. casei = assay: Minimum inhibitory concentration; assay type: cell-based; settings: Lacticaseibacillus casei, Gram Positive, ethanol vehicle
Text: as §2

P. gingivalis = assay: Minimum inhibitory concentration; assay type: cell-based; settings: Porphyromonas gingivalis, Gram Negative, ethanol vehicle
Text: as §2

P. intermedia = assay: Minimum inhibitory concentration; assay type: cell-based; settings: Prevotella intermedia, Gram Negative, ethanol vehicle
Text: as §2

S. gordonii = assay: Minimum inhibitory concentration; assay type: cell-based; settings: Streptococcus gordonii, Gram Positive, ethanol vehicle
Text: as §2

S. mutans = assay: Minimum inhibitory concentration; assay type: cell-based; settings: Streptococcus mutans, Gram Positive, ethanol vehicle
Text: as §2

S. oralis = assay: Minimum inhibitory concentration; assay type: cell-based; settings: Streptococcus oralis, Gram Positive, ethanol vehicle
Text: as §2

S. sanguinis = assay: Minimum inhibitory concentration; assay type: cell-based; settings: Streptococcus sanguinis, Gram Positive, ethanol vehicle
Text: as §2

S. sobrinus = assay: Minimum inhibitory concentration; assay type: cell-based; settings: Streptococcus sobrinus, Gram Positive, ethanol vehicle
Text: as §2

V. parvula = assay: Minimum inhibitory concentration; assay type: cell-based; settings: Veillonella parvula, Gram Negative, ethanol vehicle
Text: as §2

biofilm = assay: Biofilm disruption assay; assay type: cell-based
Method: The solution of 0.5% AN0128.0.75% SLS. 50% Fluraflo L4370 in water is then tested in a biofilm disruption assay.
A solution of 2% Compound 1 in PEG 300 is diluted 1:1 with 2% SLS in water to produce a solution composed of 1% Compound 1, 1% SLS, 50% PEG 300 in water which is then tested in a biofilm disruption assay.
as §1

[2] = Decomposition in buffered vs unbuffered pH 7.2 formulation; assay type: physicochemical; settings: pH 7.2, phosphate buffer, 14 days
Method: Two pH 7.2 formulations of Compound 1 are prepared, one with phosphate buffer, one without, and the decomposition of Compound 1 is measured over 14 days. While measurable decomposition is seen in both formulations, the slope of the rate of decomposition Compound 1 in the buffered formulation is decreased by 3.3 fold compared to that of the unbuffered formulation.

[3] = Stability of formulations with and without antioxidants; assay type: physicochemical
Text: The stability of three formulations of Compound 1 are compared, the formulations being identical except that one is without any antioxidants, one contains α-tocopherol, and the third contains sodium ascorbylphosphate.

Cc1ccc([B-]2(c3ccc(C)c(Cl)c3)OC(=O)c3ncccc3[OH+]2)cc1Cl [Compound 1]
amount of Compound 1 solubilized by Fluraflo L4370 [1]: 1 % w/w
amount of Compound 1 solubilized by PEG 300 [1]: 10 % w/w
solubility in oils [1]: less than 0.5%
solubility in water [1]: 100 ppm
solubilization by PEG 600 [1]: can solubilize
appearance of solution ([1]; 1% Compound 1 in 19% PEG 300 and 80% propylene glycol): clear
MIC (A. actinomycetemcomitans): > 15.6 µg/mL
MIC (A. naeslundii): 1 to 2 µg/mL (≈ 2.5 to 5 µM)
MIC (A. viscosus): 1 µg/mL (≈ 2.5 µM)
MIC (F. nucleatum): 1 to 2 µg/mL (≈ 2.5 to 5 µM)
MIC (L. casei): 2 to 3.9 µg/mL (≈ 5 to 9.75 µM)
MIC (P. gingivalis): ≤ 0.12 µg/mL
MIC (P. intermedia): 3.9 to 7.8 µg/mL (≈ 9.75 to 19.5 µM)
MIC (S. gordonii): 0.12 to 0.25 µg/mL (≈ 0.3 to 0.625 µM)
MIC (S. mutans): 0.25 to 0.5 µg/mL (≈ 0.625 to 1.25 µM)
MIC (S. oralis): 0.12 to 0.25 µg/mL (≈ 0.3 to 0.625 µM)
MIC (S. sanguinis): 0.25 to 0.5 µg/mL (≈ 0.625 to 1.25 µM)
MIC (S. sobrinus): 0.12 to 0.5 µg/mL (≈ 0.3 to 1.25 µM)
MIC (V. parvula): 7.8 µg/mL (≈ 19.5 µM)
percent reduction versus the negative control (biofilm; solution of 0.5% AN0128, 0.75% SLS, 50% Fluraflo L4370 in water): 65%
percent reduction versus the negative control (biofilm; solution of 0.5% Compound 1, 0.5% SLS, 9.5% PEG 300 and 40% propylene glycol in water): 80%
percent reduction versus the negative control (biofilm; solution of 1% Compound 1, 1% SLS, 50% PEG 300 in water): 76%
decrease of the slope of the rate of decomposition, buffered vs unbuffered formulation [2]: 3.3 fold
decomposition in formulation ([3]; formulation containing sodium ascorbylphosphate vs without antioxidants): significantly reduced
decomposition in formulation ([3]; formulation containing α-tocopherol vs without antioxidants): even less

Source: patent publication US20120052025A1 (Colgate-Palmolive Company, priority 2009, published 2012)
